# Results published in paper PMC8125568 (2021).
# Experiments:
# [1] = system: AU-RNA (poly A—poly U) (RNA, polymer) A/U; assay: circular dichroism titration; settings: Na+ (sodium cacodylate, I = 0.05 M); pH 7.0, room temperature; RNA 20 µM; CD spectrum somewhat changed
# [2] = system: AU-RNA (poly A—poly U) (RNA, polymer) A/U; assay: UV thermal denaturation, 260 nm; settings: Na+ (sodium cacodylate, I = 0.05 M), error ± 0.5, per base
# [3] = system: AT-DNA (poly dAdT—poly dAdT) (DNA, polymer) AT; assay: fluorimetric titration, Scatchard; settings: Na+ (sodium cacodylate, I = 0.05 M); pH 7.0, 25 °C, 0.04% DMSO; n fixed 0.2; polynucleotide as phosphates; per base
# [4] = system: AU-RNA (poly A—poly U) (RNA, polymer) A/U; assay: fluorimetric titration, Scatchard; settings: Na+ (sodium cacodylate, I = 0.05 M); pH 7.0, 25 °C, 0.04% DMSO; n fixed 0.2; polynucleotide as phosphates; per base
smiles,measurement,setting,value
CC12SC(C(=O)NCCN)=CC1=C1CCCC1=C1C=C(C(=O)NCCN)SC12C (stereo not drawn),binding,[1],weak
CC12SC(C(=O)NCCNC(=O)c3ccc4ccc5cccc6ccc3c4c56)=CC1=C1CCCC1=C1C=C(C(=O)NCCNC(=O)c3ccc4ccc5cccc6ccc3c4c56)SC12C (stereo not drawn),∆Tm,"[2]; pH 7.0, 4% DMSO, r = 0.3, no stabilisation",0.3 °C
Cc1sc(C(=O)NCCN)cc1C1=C(c2cc(C(=O)NCCN)sc2C)CCC1,∆Tm,"[2]; pH 7.0, r = 0.3",−0.7 °C
Cc1sc(C(=O)NCCNC(=O)c2ccc3ccc4cccc5ccc2c3c45)cc1C1=C(c2cc(C(=O)NCCNC(=O)c3ccc4ccc5cccc6ccc3c4c56)sc2C)CCC1,∆Tm,"[2]; pH 7.0, 0.5% DMSO, r = 0.3, RNA 20 µM, two transitions (first/second)",0/23.4 °C
same,logKs,[3],6.3 log M^-1
same,logKs,[4],6.1 log M^-1
